Data as given in publication PMC11627468, “Novel enzyme‐resistant pancreatic polypeptide analogs evoke pancreatic beta‐cell rest, enhance islet cell turnover, and inhibit food intake in mice” (Biofactors (Oxford, England), 2024).
Starred links: 1 amine or outer side, 2 acyl side, 3 side chain; linkers in the order of their positions; H or OH if unused. Residues, ends and D or L forms follow the SMILES beside them. Groups on a side chain read outwards from the residue. *: point of attachment. γGlu = O=C(O)[C@H](CCC(=O)[*:2])N[*:1]; Palmitoyl = CCCCCCCCCCCCCCCC(=O)*

How the values were obtained:
[1] = In vitro DPP‐4 degradation; type: in vitro ADME, human; conditions: isolated enzyme; peptide 50 μg with purified human DPP‐4 (5 μL, 0.01 U/L), 37°C, 8 h; stopped with 10% (v/v) trifluoroacetic acid; rp‐HPLC C‐18, UV 214 nm; peaks by MALDI‐MS; read-out: % intact peptide after 8 h DPP‐4 incubation
Method: PP peptides (50 μg) were incubated at 37°C for 0–8 h with 5 μL of purified human DPP‐4 enzyme (0.01 U/L, Sigma‐Aldrich, Gillingham, UK). Degradation reactions were terminated via the addition of 10 μL 10% (v/v) trifluoroacetic acid/water solution. Reaction mixes were separated by reverse phase rp‐HPLC using a Phenomenex C‐18 analytical column (250 × 4.6 mm^2) with UV absorbance detection at 214 nm (ThermoQuest SpectraSystem UV2000 detector). HPLC peaks of interest were collected and analyzed by MALDI‐TOF MS on a Perseptive Biosystems Voyager‐DE Biospectrometry (Hertfordshire, UK).

C57BL/6 mice [2] = assay: Acute food intake in overnight fasted mice; type: in vivo; conditions: i.p., overnight fasted mice
Method: (§1) Acute in vivo studies were conducted in groups (n = 6) of 4‐month‐old male C57BL/6 mice (Envigo, Huntington, UK). All mice were maintained on standard rodent chow (10% fat, 30% protein, and 60% carbohydrate; Trouw Nutrition, Northwich, UK), and drinking water provided ad libitum. Mice were housed individually and kept in a temperature‐controlled environment (22 ± 2°C), with a 12‐h light/dark cycle. Experiments were carried out in accordance with the UK Animal Scientific Procedures Act 1986 as well as being approved by Ulster University Animal Ethics Review Committee (AWERB) committee and protected by the UK Home Office Animal project license number PPL2902, approved on April 26, 2021. Acute effects of test peptides on food intake were tested in overnight (16 h) fasted mice. Briefly, fasted mice were administered an intraperitoneal (i.p.) injection of saline vehicle (0.9% (w/v) NaCl) alone or in combination with test peptides (each at 25, 75, or 200 nmol/kg bw) and cumulative food intake measured at regular intervals, to assess the pharmacodynamic profile of the test peptides. For food intake studies, mice were provided with preweighed rodent maintenance diet in their food hopper at t = 0 min, which was then re‐weighed at each timepoint with all due care taken to account for any wastage or crumbling of the food pellets. In this regard, the investigator was present at all times during the 180‐min test period to ensure accuracy and consistency in all measurements. Furthermore, effects of PP or related peptides (25 nmol/kg bw) on glucose homeostasis and insulin secretion were evaluated in overnight fasted mice following i.p. injection of glucose alone (18 mmol/kg bw) or in combination with PP peptides (each at 25 nmol/kg bw).

C57BL/6 mice [3] = assay: Glucose tolerance in mice; type: in vivo; conditions: PP peptide 25 nmol/kg with CCK‐8 25 nmol/kg and glucose 18 mmol/kg i.p.; n = 6
Method: as §1, with “bw). […] Blood glucose was measured immediately using a hand‐held Ascencia Contour blood glucose meter (Bayer Healthcare, Newbury, Berkshire, UK). […]” for “bw).”

C57BL/6 mice [4] = assay: Glucose‐stimulated plasma insulin in mice; type: in vivo; conditions: peptide 25 nmol/kg with glucose 18 mmol/kg i.p., versus glucose control; n = 6
Method: as §1, with “bw). […] Blood glucose was measured immediately using a hand‐held Ascencia Contour blood glucose meter (Bayer Healthcare, Newbury, Berkshire, UK). For plasma insulin, blood was collected in chilled fluoride/heparin‐coated microcentrifuge tubes (Sarstedt, Numbrecht, Germany) and centrifuged using a Beckman microcentrifuge (Beckman Instruments, Galway, Ireland) for 10 min at 12,000 rpm. Plasma was separated and stored at −20°C, until determination of plasma insulin by radioimmunoassay.[23]” for “bw).”

CCCCCCCCCCCCCCCC(=O)N[C@@H](CCC(=O)NCCCC[C@H](NC(=O)[C@H](C)NC(=O)[C@H](CC(N)=O)NC(=O)[C@H](CC(=O)O)NC(=O)CNC(=O)[C@@H]1CCCN1C(=O)[C@H](Cc1ccc(O)cc1)NC(=O)[C@@H](NC(=O)[C@@H]1CCCN1C(=O)[C@H](CCC(=O)O)NC(=O)[C@@H]1CCCN1C(=O)[C@@H]1CCCN1C(=O)[C@H](C)N)C(C)C)C(=O)N1CCC[C@H]1C(=O)N[C@@H](CCC(=O)O)C(=O)N[C@@H](CCC(N)=O)C(=O)N[C@@H](CCSC)C(=O)N[C@@H](C)C(=O)N[C@@H](CCC(N)=O)C(=O)N[C@@H](Cc1ccc(O)cc1)C(=O)N[C@@H](C)C(=O)N[C@@H](C)C(=O)N[C@@H](CC(=O)O)C(=O)N[C@@H](CC(C)C)C(=O)N[C@@H](CCCNC(=N)N)C(=O)N[C@@H](CCCNC(=N)N)C(=O)N[C@@H](Cc1ccc(O)cc1)C(=O)N[C@H](C(=O)N[C@@H](CC(N)=O)C(=O)N[C@@H](CCSC)C(=O)N[C@@H](CC(C)C)C(=O)N[C@H](C(=O)N[C@@H](CCCNC(=N)N)C(=O)N1CCC[C@H]1C(=O)N[C@@H](CCCNC(=N)N)C(=O)N[C@@H](Cc1ccc(O)cc1)C(N)=O)[C@@H](C)O)[C@@H](C)CC)C(=O)O [[P^3,K^13Pal]PP] (H-APPEPVYPGDNAK([γGlu-Palmitoyl])PEQMAQYAADLRRYINMLTRPRY-NH2; N-terminus assumed)
remaining at 8 h [1]: > 99%
food intake in overnight fasted mice, summary in discussion (C57BL/6 mice [2]): retained impressive effects to restrict food intake
effect on CCK‐8 benefit on glucose disposal (C57BL/6 mice [3]): mildly impair the overall glucose‐lowering action of CCK‐8
glucose‐induced insulin secretion (plasma insulin) (C57BL/6 mice [4]): slightly decreasing (p = <0.05 to 0.01)
